Columns and labels:
[1] = GSH reaction rates (inherent GSH reactivity); type: in vitro ADME
Method: Therefore Strategy to minimize the GSH metabolism is very critical. Short T1/2 in inherent GSH reaction indicated high GSH reaction rate. Thus T1/2 in inherent GSH reaction assay was determined for the screening of candidates. Reference compounds and compounds of this invention potentially could form conjugation with GSH either through halogenated moieties substitution reaction or direct Michael addition reaction. This test was therefore performed to check GSH reactivity of listed compounds. For inherent GSH reactivity determination, compounds at 1 μM were incubated at 37° C. with and without 5 mM GSH for 0, 0.5, 1, 2, 4 and 6 h in 100 mM potassium phosphate buffer at pH 7.4. At the end of the designated time points, samples were quenched with acetonitrile containing 10 mM N-ethylmaleimide and an internal standard. Quenched samples were centrifuged, and supernatants were analyzed by LC-MS/MS for compound quantification.

[2] = system: KRAS G12C in NCI-H358 cells; test: pERK inhibition assay, NCI-H358; type: cell-based, human; details: Homo sapiens, 4 hours incubation
Method: (§1) This assay is to measure the ability of test compounds in inhibiting the phosphorylation of ERK, the downstream signaling of KRAS G12C in NCI-H358 cells, KRAS G12D in AGS cells, and KRAS G12V in SW620. NCI-H358 (ATCC-CRL5807) cells, AGS (ATCC-CRL-1739) cells, SW620 (ATCC-CCL-227) cells were all grown and maintained using RPMI-1640 medium (Thermo Fisher Scientific) with 10% fetal bovine serum and 1% penicillin/streptomycin. On the day prior to compound addition, cells were plated in tissue culture-treated 96 well plates (Corning-3699) at a density of 30,000 cell/well, 20,000 cell/well, 30,000 cell/well for NCI-H358, AGS and SW620 respectively, and allowed for attachment overnight. Diluted compounds were then added in a final concentration of 0.5% DMSO. After 4 hours of incubation, the medium was removed, 100 μL of 4% formaldehyde was added, and the assay plates were incubated at room temperature for 20 minutes. The plates were then washed once with phosphate buffered saline (PBS), and permeabilized with 100 μL of chilled methanol for 10 minutes. Non-specific antibody binding to the plates was blocked using 50 μL 1×BSA blocking buffer (Thermo-37520, 10-fold dilution by Phosphate-Buffered Saline Tween (PBST) for at least 1 hour at room temperature. The amount of phosphor-ERK was determined using an antibody specific for phosphorylated form of ERK. Primary antibody (pERK, CST-4370, Cell Signaling Technology) was diluted 1:300 in blocking buffer, with 50 μL aliquoted to each well, and incubated overnight at 4° C. Cells were washed five times for 5 minutes with PBST. Secondary antibody (HRP-linked anti-rabbit IgG, CST-7074, Cell Signaling Technology) was diluted 1:1000 in blocking buffer, and 50 μL was added to each well and incubated 1-2 hours at room temperature. Cells were washed 5 times for 5 minutes with PBST, 100 μL TMB ELISA substrate (abcam-ab171523) were added and gently shake for 20 minutes. 50 μL stop solution (abcam-ab171529) were added, and then read the signal (OD450) by EnVision. IC50 was determined by fitting a 4-parameter sigmoidal concentration response model.

[3] = system: KRAS G12D in AGS cells; test: pERK inhibition assay, AGS; type: cell-based, human; details: Homo sapiens, 4 hours incubation
Method: as §1

[4] = system: KRAS G12V in SW620; test: pERK inhibition assay, SW620; type: cell-based, human; details: Homo sapiens, SW-620, SW620 cells, 4 hours incubation
Method: as §1

[5] = system: NCI-H358 cells; test: Cell viability assay, NCI-H358; type: cell-based, human; details: Homo sapiens, NCI-H358, 72 hours, Cell Counting Kit-8, read-out: G12C IC50
Method: (§2) The purpose of this cellular assay was to determine the effects of test compounds on the proliferation of human cancer cell lines NCI-H358 (ATCC-CRL5807) cells, AGS (ATCC-CRL-1739) cells, SW620 (ATCC-CCL-227) over a 3-day treatment period by quantifying the amount of NADPH present at endpoint using Cell Counting Kit-8. Cells were seeded at 5,000 cells/well (NCI-H358), 2,000 cells/well (AGS) 2,000 cells/well (SW620) in 96-well assay plates (Corning-3699) and incubated overnight. On the day of the assay, diluted compounds were then added in a final concentration of 0.5% DMSO. After 72 hours incubation, a tenth of the volume of cell counting kit 8(Dnjindo-CK04) was added into each well. Read the signal (OD450 minus OD650) using EnVision after 2 hours incubation. IC50 was determined by fitting a 4-parameter sigmoidal concentration response model.

[6] = system: AGS cells; test: Cell viability assay, AGS; type: cell-based, human; details: Homo sapiens, 72 hours, Cell Counting Kit-8, read-out: G12D IC50
Method: as §2

[7] = system: SW620 cells; test: Cell viability assay, SW620; type: cell-based, human; details: Homo sapiens, SW-620, SW620, 72 hours, Cell Counting Kit-8, read-out: G12V IC50
Method: as §2

[8] = Human hepatocytes stability assay; type: in vitro ADME; details: for CL_hep (Human): 1 μM compound, human hepatocytes 1×10^6 cells/mL; for Clearance Category: human hepatocytes
Method: The hepatocyte stability assay measures the rate of disappearance of a compound from incubations with cryopreserved suspension hepatocytes from human. Positive controls, including Midazolam, Raloxifene and Dextromethorphan, are included in every experiment. Incubations consist of 1 μM tested compound and suspension of human hepatocytes (1×10^6 cells/mL) in supplemented Williams' E Medium with […] and 0.5% Penicillin-streptomycin. The hepatocyte suspension was incubated with intermittent shaking 900 rpm at 37° C., in a 5% CO2 incubator. The reaction was stopped by adding methanol containing internal standard (2 μM Tolbutamide) at 2, 10, 20, 40, 60 and 120 minutes after compound addition, depletion of the parent compound was monitored by LC-MS/MS analysis.

Row | Compound | Remaining at 6 hr in GSH (%) ([1]; 1 μM compound, 5 mM GSH, 37° C., pH 7.4, 6 hr) | T1/2(hour) in GSH ([1]; 1 μM compound, 5 mM GSH, 37° C., potassium phosphate buffer pH 7.4) | IC50 [2] [nM] | IC50 [3] [nM] | IC50 [4] [nM] | IC50 [5] [nM] | IC50 [6] [nM] | IC50 [7] [nM] | CL_hep (Human) [8] [mL/min/kg] | Clearance Category [8] | Remaining at 6 hr in GSH (%) ([1]; 6 h, 1 μM, pH 7.4)
1 | CO[C@@H](C)c1ncc(N2CCN(C)CC2)cc1-c1c2c3cc(ccc3n1CC(F)(F)F)-c1csc(n1)C[C@H](NC(=O)[C@H](C(C)C)N1CC[C@]3(CCN(C(=O)[C@H](F)Cl)C3)C1=O)C(=O)N1CCC[C@H](N1)C(=O)OCC(C)(C)C2 [Example 23, (2S)-2-[(5S)-7-[(2R)-2-chloro-2-fluoro-acetyl]-1-oxo-2,7-diazaspiro[4.4]nonan-2-yl]-N-[(7S,13S)-(20M)-20-[2-[(1S)-1-methoxyethyl]-5-(4-methylpiperazin-1-yl)-3-pyridyl]-17,17-dimethyl-8,14-dioxo-21-(2,2,2-trifluoroethyl)-15-oxa-4-thia-9,21,27,28-tetrazapentacyclo[17.5.2.12,5.19,13.022,26]octacosa-1(25),2,5(28),19,22(26),23-hexaen-7-yl]-3-methyl-butanamide] | 95 | stable (If % depletion after 6 hour incubation is less than 20%, compounds were reported as stable) | 2 | 18 | 8 | < 0.6 | 3410 | 15 | 7.9 | medium (16.24<CL_hep (mL/min/kg)>6.96 is medium clearance) | –
2 | C#CC1CCN(C(=O)N(C)[C@H](C(=O)N[C@H]2Cc3cc(O)cc(c3)-c3ccc4c(c3)c(c(-c3cccnc3[C@H](C)OC)n4CC)CC(C)(C)COC(=O)[C@@H]3CCCN(N3)C2=O)C(C)C)CC1 (atropisomer, axis not shown; (M)) [Example 15, N-[(1S)-1-[[(8S,14S)-22-ethyl-4-hydroxy-(21M)-21-[2-[(1S)-1-methoxyethyl]-3-pyridyl]-18,18-dimethyl-9,15-dioxo-16-oxa-10,22,28-triazapentacyclo[18.5.2.12,6.110,14.023,27]nonacosa-1(26),2,4,6(29),20,23(27),24-heptaen-8-yl]carbamoyl]-2-methyl-propyl]-4-ethynyl-N-methyl-piperidine-1-carboxamide] | – | – | 32 | 291 | 67 | 89 | 1240 | 281 | – | – | –
3 | CCn1c(-c2cccnc2[C@H](C)OC)c2c3cc(ccc31)-c1cc(O)cc(c1)C[C@H](NC(=O)[C@H](C(C)C)N(C)C(=O)C1CCN(C(=O)C#CCN3CCOCC3)C1)C(=O)N1CCC[C@H](N1)C(=O)OCC(C)(C)C2 (stereo partly shown) [RM018, reference compound] | – | – | 8 | > 10000 | > 1000 | 4 | > 10000 | > 1000 | – | – | –
4 | CCn1c(-c2cccnc2[C@H](C)OC)c2c3cc(ccc31)-c1cc(O)cc(c1)C[C@H](NC(=O)[C@H](C(C)C)N(C)C(=O)[C@H]1CCN(C(=O)C(C)=O)C1)C(=O)N1CCC[C@H](N1)C(=O)OCC(C)(C)C2 (atropisomer, axis not shown; (M)) [Example 5, (3S)-N-[(1S)-1-[[(8S,14S)-22-ethyl-4-hydroxy-(21M)-21-[2-[(1S)-1-methoxyethyl]-3-pyridyl]-18,18-dimethyl-9,15-dioxo-16-oxa-10,22,28-triazapentacyclo[18.5.2.12,6.110,14.023,27]nonacosa-1(26),2,4,6(29),20,23(27),24-heptaen-8-yl]carbamoyl]-2-methyl-propyl]-N-methyl-1-(2-oxopropanoyl)pyrrolidine-3-carboxamide] | – | – | 8 | 105 | 26 | 77 | 226 | 57 | – | – | –
5 | CCn1c(-c2cccnc2COC)c2c3cc(ccc31)-c1cc(O)cc(c1)C[C@H](NC(=O)[C@H](C(C)C)N(C)C(=O)C1CN(C(=O)[C@H](F)Cl)C1)C(=O)N1CCC[C@H](N1)C(=O)OCC(C)(C)C2 [RM461-A] | – | – | 49 | > 10000 | 7020 | 45 | 7920 | 6880 | 5.5 | low (CL_hep (mL/min/kg)<6.96 is low clearance) | 100
6 | C#CC1(F)CCN(C(=O)N(C)[C@H](C(=O)N[C@H]2Cc3cc(O)cc(c3)-c3ccc4c(c3)c(c(-c3cccnc3[C@H](C)OC)n4CC)CC(C)(C)COC(=O)[C@@H]3CCCN(N3)C2=O)C(C)C)CC1 (atropisomer, axis not shown; (M)) [Example 16, N-[(1S)-1-[[(8S,14S)-22-ethyl-4-hydroxy-(21M)-21-[2-[(1S)-1-methoxyethyl]-3-pyridyl]-18,18-dimethyl-9,15-dioxo-16-oxa-10,22,28-triazapentacyclo[18.5.2.12,6.110,14.023,27]nonacosa-1(26),2,4,6(29),20,23(27),24-heptaen-8-yl]carbamoyl]-2-methyl-propyl]-4-ethynyl-4-fluoro-N-methyl-piperidine-1-carboxamide] | – | – | 43 | 528 | 78 | 77 | 1170 | 294 | – | – | –
7 | CO[C@@H](C)c1ncccc1-c1c2c3cc(ccc3n1CC(F)(F)F)-c1csc(n1)C[C@H](NC(=O)[C@H](C(C)C)N(C)C(=O)[C@H]1CCN(C(=O)[C@H](F)Cl)C1)C(=O)N1CCC[C@H](N1)C(=O)OCC(C)(C)C2 (atropisomer, axis not shown; (M)) [Example 22, (3S)-1-[(2R)-2-chloro-2-fluoro-acetyl]-N-[(1S)-1-[[(7S,13S)-(20M)-20-[2-[(1S)-1-methoxyethyl]-3-pyridyl]-17,17-dimethyl-8,14-dioxo-21-(2,2,2-trifluoroethyl)-15-oxa-4-thia-9,21,27,28-tetrazapentacyclo[17.5.2.12,5.19,13.022,26]octacosa-1(25),2,5(28),19,22(26),23-hexaen-7-yl]carbamoyl]-2-methyl-propyl]-N-methyl-pyrrolidine-3-carboxamide] | – | – | 55 | 199 | 102 | 16.3 | 868 | 255 | – | – | –

From US20250163072A1, “MACROCYCLIC COMPOUNDS FOR THE TREATMENT OF CANCER” (Hoffmann-La Roche Inc., priority 2021, published 2025)
